{
  "source": "paper PMC11091220",
  "about": "“Metabolism-driven in vitro/in vivo disconnect of an oral ERɑ VHL-PROTAC” (Communications Biology, 2024)",
  "key": {"[1]": {"assay": "Mouse hepatocyte intrinsic clearance", "assay_type": "in vitro ADME", "description": "Livers from CD-1 male mice weighing 30-35 g were digested and perfused using D-Hanks solution containing EDTA or collagenase. Once digested the liver was transferred to a petri dish and the hepatocytes were prepared by washing and centrifuging with a Leibovitz-15 medium containing 50% isotonic percoll. A cell viability >80% was required to progress the cells. The test compound was prepared to 10 mM in 100% DMSO and further diluted to 100 μM in 100% acetonitrile. The hepatocyte incubations were prepared in Leibovitz’s L-15 Medium pH 7.4 containing 1 million hepatocytes/mL and a final compound concentration of 1 µM. Cell viability was determined using a Cellometer Vision and >80% cell viability was required to proceed with the compound incubation. The compound/cell solution (250 µL) was incubated for 2 h at 37 °C and shaken at 900 rpm on an Eppendorf Thermomixer Comfort plate shaker. Samples (20 µL) were taken at 0.5, 5, 15, 30, 45, 60, 80, 100, and 120 min and quenched with 100 μL of 100% ice-cold acetonitrile. Samples were shaken at 800 rpm for 2 min and centrifuged at 4000 rpm for 20 min at 4 °C to pellet precipitated protein. The supernatant fraction was diluted 1:5 with deionised water, shaken at 1000 rpm for 2 min, and further diluted 1:1 with deionised water. Samples were analysed by LC-MS/MS[17]."}, "[2]": {"assay": "Mouse pharmacokinetics, i.v./oral and enabling formulations", "assay_type": "in vivo", "description": "(*) AUC0-6 (data BLQ beyond 6 hours). TEXT PRINTED IN THE PICTURE: (e) Formulation SF: Dose normalised Cmax (μM): 0.009 (Oral dose (mg/kg): 1); Dose normalised AUC0-12 (μM.h): 0.02* (Oral dose (mg/kg): 1) | (e) Formulation EF1: Dose normalised Cmax (μM): 0.023 (Oral dose (mg/kg): 100); Dose normalised AUC0-12 (μM.h): 0.22 (Oral dose (mg/kg): 100) | (e) Formulation EF2: Dose normalised Cmax (μM): 0.002 (Oral dose (mg/kg): 100); Dose normalised AUC0-12 (μM.h): 0.009 (Oral dose (mg/kg): 100) | (e) Formulation EF3: Dose normalised Cmax (μM): 0.045 (Oral dose (mg/kg): 100); Dose normalised AUC0-12 (μM.h): 0.12 (Oral dose (mg/kg): 100); Dose normalised Cmax (μM): 0.016 (Oral dose (mg/kg): 30); Dose normalised AUC0-12 (μM.h): 0.06* (Oral dose (mg/kg): 30); Dose normalised Cmax (μM): 0.017 (Oral dose (mg/kg): 10); Dose normalised AUC0-12 (μM.h): 0.06* (Oral dose (mg/kg): 10) | (e) Formulation EF4: Dose normalised Cmax (μM): 0.022 (Oral dose (mg/kg): 100); Dose normalised AUC0-12 (μM.h): 0.10 (Oral dose (mg/kg): 100) | (e) Formulation EF5: Dose normalised Cmax (μM): 0.050 (Oral dose (mg/kg): 100); Dose normalised AUC0-12 (μM.h): 0.25 (Oral dose (mg/kg): 100); Dose normalised Cmax (μM): 0.013 (Oral dose (mg/kg): 30); Dose normalised AUC0-12 (μM.h): 0.045* (Oral dose (mg/kg): 30); Dose normalised Cmax (μM): 0.023 (Oral dose (mg/kg): 10); Dose normalised AUC0-12 (μM.h): 0.076* (Oral dose (mg/kg): 10)\nEach plasma sample ([…]) was prepared using an appropriate dilution factor, and compared against an 11-point standard calibration curve (1-10000 nM) prepared in DMSO and spiked into blank plasma. Acetonitrile ([…]) was added with the internal standard, followed by centrifugation at 3000 rpm for 10 minutes. The supernatant ([…]) was then diluted in […] acetonitrile:water (75:25) and analyzed via UPLC-MS/MS.\nThe MS/MS instrument used was either a Waters XEVO® TQ-S, Waters XEVO® TQ-D, or API 4000 (AB Sciex). The ultra-mass spectrometer used for sample analysis was completed in the MRM mode (MS/MS). Reverse-phase HPLC with a C18 column was used to separate the analytes. A mobile phase of 99% water/0.1% formic acid (solvent A) and a solvent phase of 99% acetonitrile/0.1% formic acid (solvent B) was used. A generic LC gradient elution was used at a flow rate of 0.5 mL/min with 95% solvent A and 5% solvent B for 0.3 min after which the concentration of solvent B was increased to 95% over 0.9 min before restoring it back to 5% for the remaining 0.5 min. Mass spectrometer methods were optimised for each compound."}},
  "note": "Read-outs that look alike come from different tables or passages of the source.",
  "data": [
    {"smiles": "Cc1ncsc1-c1ccc(CNC(=O)[C@@H]2C[C@@H](O)CN2C(=O)[C@@H](NC(=O)COCCCOCCCOc2cc(F)c([C@@H]3c4[nH]c5ccccc5c4C[C@@H](C)N3CC(C)(C)F)c(F)c2)C(C)(C)C)cc1", "note": "[Compound 5]", "values": [
      {"measurement": "mouse hepatocytes stability", "setting": "[1]", "value": 9, "unit": "µL/min/x10^6 cells"},
      {"measurement": "hepatocyte CLint at 1 µM", "setting": "[1]; male, CD-1, mouse, hepatocytes, pH 7.4, read-out: muHeps (mouse hepatocytes) clearance", "value": 9, "unit": "µL/min/1e6 cells"},
      {"measurement": "muHeps (mouse hepatocytes) clearance", "setting": "[1]; mouse", "value": 9.5, "unit": "µL/min/1e6 cells"},
      {"measurement": "Plasma conc (total)", "setting": "[2]; IV 0.5 mg/kg, mouse, 0.03 h, listed as AZ'6421, 0.5 mg/kg", "value": 1770, "unit": "nM"},
      {"measurement": "Plasma conc (total)", "setting": "[2]; IV 0.5 mg/kg, 0.17 h, listed as AZ'6421, 0.5 mg/kg", "value": 219, "unit": "nM"},
      {"measurement": "Plasma conc (total)", "setting": "[2]; IV 0.5 mg/kg, 0.5 h, listed as AZ'6421, 0.5 mg/kg", "value": 58.2, "unit": "nM"},
      {"measurement": "Plasma conc (total)", "setting": "[2]; IV 0.5 mg/kg, 1 h, listed as AZ'6421, 0.5 mg/kg", "value": 27.9, "unit": "nM"},
      {"measurement": "Plasma conc (total)", "setting": "[2]; IV 0.5 mg/kg, 2 h, listed as AZ'6421, 0.5 mg/kg", "value": 15.2, "unit": "nM"},
      {"measurement": "Plasma conc (total)", "setting": "[2]; IV 0.5 mg/kg, 4 h, listed as AZ'6421, 0.5 mg/kg", "value": 6.74, "unit": "nM"},
      {"measurement": "Plasma conc (total)", "setting": "[2]; IV 0.5 mg/kg, 6 h, listed as AZ'6421, 0.5 mg/kg", "value": 4.38, "unit": "nM"},
      {"measurement": "Plasma conc (total)", "setting": "[2]; IV 0.5 mg/kg, 8 h, listed as AZ'6421, 0.5 mg/kg", "value": 2.82, "unit": "nM"},
      {"measurement": "Plasma conc (total)", "setting": "[2]; Oral 1 mg/kg in SF, mouse, 0.5 h, listed as AZ'6421, 1 mg/kg", "value": 4.03, "unit": "nM"},
      {"measurement": "Plasma conc (total)", "setting": "[2]; Oral 1 mg/kg in SF, 1 h, listed as AZ'6421, 1 mg/kg", "value": 6.69, "unit": "nM"},
      {"measurement": "concentration at 0.03 h", "setting": "[2]; mouse, plasma, iv, 0.5 mg/kg, IV 0.5 mg/kg, mouse, 0.03 h, read-out: Plasma conc (total)", "value": 1990, "unit": "nM"},
      {"measurement": "concentration at 0.17 h", "setting": "[2]; mouse, plasma, iv, 0.5 mg/kg, IV 0.5 mg/kg, 0.17 h, read-out: Plasma conc (total)", "value": 261, "unit": "nM"},
      {"measurement": "concentration at 0.5 h", "setting": "[2]; mouse, plasma, iv, 0.5 mg/kg, IV 0.5 mg/kg, 0.5 h, read-out: Plasma conc (total)", "value": 89, "unit": "nM"},
      {"measurement": "concentration at 1 h", "setting": "[2]; mouse, plasma, iv, 0.5 mg/kg, IV 0.5 mg/kg, 1 h, read-out: Plasma conc (total)", "value": 41.9, "unit": "nM"},
      {"measurement": "concentration at 2 h", "setting": "[2]; mouse, plasma, iv, 0.5 mg/kg, IV 0.5 mg/kg, 2 h, read-out: Plasma conc (total)", "value": 16.9, "unit": "nM"},
      {"measurement": "concentration at 4 h", "setting": "[2]; mouse, plasma, iv, 0.5 mg/kg, IV 0.5 mg/kg, 4 h, read-out: Plasma conc (total)", "value": 7.09, "unit": "nM"},
      {"measurement": "concentration at 6 h", "setting": "[2]; mouse, plasma, iv, 0.5 mg/kg, IV 0.5 mg/kg, 6 h, read-out: Plasma conc (total)", "value": 3.27, "unit": "nM"},
      {"measurement": "concentration at 8 h", "setting": "[2]; mouse, plasma, iv, 0.5 mg/kg, IV 0.5 mg/kg, 8 h, read-out: Plasma conc (total)", "value": 2.02, "unit": "nM"},
      {"measurement": "clearance", "setting": "[2]; mouse, plasma, iv, 0.5 mg/kg i.v., read-out: mouse in vivo clearance", "value": 22, "unit": "mL/min/kg"},
      {"measurement": "concentration at 0.5 h", "setting": "[2]; mouse, plasma, po, 1 mg/kg, Oral 1 mg/kg in SF, mouse, 0.5 h, read-out: Plasma conc (total)", "value": 2.24, "unit": "nM"},
      {"measurement": "concentration at 1 h", "setting": "[2]; mouse, plasma, po, 1 mg/kg, Oral 1 mg/kg in SF, 1 h, read-out: Plasma conc (total)", "value": 9.06, "unit": "nM"},
      {"measurement": "concentration at 4 h", "setting": "[2]; mouse, plasma, po, 1 mg/kg, Oral 1 mg/kg in SF, 4 h, read-out: Plasma conc (total)", "value": 2.98, "unit": "nM"},
      {"measurement": "AUC", "setting": "[2]; plasma, po, 1 mg/kg p.o., SF, mouse, read-out: oral exposure (AUC)", "value": 0.02, "unit": "µM·h"}
    ]}
  ]
}
